From patent publication US4439426A, “Semisynthetic macrolidic antibiotics, intermediate compounds for their preparation and related pharmaceutical compositions containing them” (priority 1981, dated 1984)
In brackets after ≈: the same amount, converted by molar mass.

Columns and labels:
[1] = test system: Pseudomonas aeruginosa LRP 9; assay: Bacteriostatic power in solid medium (MIC); type: cell-based; settings: Pseudomonas aeruginosa, LRP9, read-out: Minimum inhibiting concentration
Outline: (§1)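 Strains → exposure to the compound → lowest growth-inhibiting concentration noted as MIC. Aerobic and anaerobic organisms of both Gram groups.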

[2] = test system: Streptococcus pneumoniae ATCC 6303 LRP 35; assay: Bacteriostatic power in solid medium (MIC); type: cell-based; settings: Streptococcus pneumoniae, ATCC6303, read-out: Minimum inhibiting concentration
Outline: as §1

[3] = test system: Staphylococcus aureus ATCC 6538P LRP 14; assay: Bacteriostatic power in solid medium (MIC); type: cell-based; settings: Staphylococcus aureus, ATCC6538P, read-out: Minimum inhibiting concentration
Outline: as §1

[4] = test system: Staphylococcus aureus ATCC 6538P LRP 39; assay: Bacteriostatic power in solid medium (MIC); type: cell-based; settings: Staphylococcus aureus, ATCC6538P, read-out: Minimum inhibiting concentration
Outline: as §1

[5] = test system: Streptococcus pneumoniae ATCC 6303 LRP 53; assay: Bacteriostatic power in solid medium (MIC); type: cell-based; settings: Streptococcus pneumoniae, ATCC6303, read-out: Minimum inhibiting concentration
Outline: as §1

[6] = test system: Corynebacterium diphteriae LRP 24; assay: Bacteriostatic power in solid medium (MIC); type: cell-based; settings: Corynebacterium, LRP24, read-out: Minimum inhibiting concentration
Outline: as §1

[7] = test system: Streptococcus pneumoniae ATCC 6303 LRP 52; assay: Bacteriostatic power in solid medium (MIC); type: cell-based; settings: Streptococcus pneumoniae, ATCC6303, read-out: Minimum inhibiting concentration
Outline: as §1

[8] = test system: Streptococcus pyogenes ATCC 8668 LRP 34; assay: Bacteriostatic power in solid medium (MIC); type: cell-based; settings: Streptococcus pyogenes, ATCC8668, read-out: Minimum inhibiting concentration
Outline: as §1

[9] = test system: Acholeplasma laidlawii ATCC 23206 LRP 204; assay: Bacteriostatic power in solid medium (MIC); type: cell-based; settings: Acholeplasma laidlawii, ATCC23206; solid medium; read-out: Minimum inhibiting concentration
Outline: as §1

[10] = test system: Bacteroides fragilis ATCC 23745 LRP 205; assay: Bacteriostatic power in solid medium (MIC); type: cell-based; settings: Bacteroides fragilis, ATCC23745, read-out: Minimum inhibiting concentration
Outline: as §1

[11] = test system: Proteus vulgaris ATCC 6380 LRP 13; assay: Bacteriostatic power in solid medium (MIC); type: cell-based; settings: Proteus vulgaris, ATCC6380, read-out: Minimum inhibiting concentration
Outline: as §1

Shigella sonnei LRP 5 = assay: Bacteriostatic power in solid medium (MIC); type: cell-based; settings: LRP5, read-out: Minimum inhibiting concentration
Outline: as §1

Escherichia coli LRP 50 = assay: Bacteriostatic power in solid medium (MIC); type: cell-based; settings: Escherichia coli, LRP50, read-out: Minimum inhibiting concentration
Outline: as §1

[12] = test system: Mycoplasma hominis I ATCC 14027 LRP 211; assay: Bacteriostatic power in solid medium (MIC); type: cell-based; settings: Metamycoplasma hominis, ATCC14027, read-out: Minimum inhibiting concentration
Outline: as §1

[13] = test system: Micrococcus luteus ATCC 9341 LRP 6; assay: Bacteriostatic power in solid medium (MIC); type: cell-based; settings: Micrococcus luteus, ATCC9341, read-out: Minimum inhibiting concentration
Outline: as §1

[14] = test system: Streptococcus pyogenes ATCC 8668 LRP 197; assay: Bacteriostatic power in solid medium (MIC); type: cell-based; settings: Streptococcus pyogenes, ATCC8668, read-out: Minimum inhibiting concentration
Outline: as §1

[15] = test system: Staphylococcus aureus ATCC 14154 LRP 78; assay: Bacteriostatic power in solid medium (MIC); type: cell-based; settings: Staphylococcus aureus, ATCC14154, read-out: Minimum inhibiting concentration
Outline: as §1

[16] = test system: Micrococcus luteus ATCC 15957 LRP 193; assay: Bacteriostatic power in solid medium (MIC); type: cell-based; settings: Micrococcus luteus, ATCC15957, read-out: Minimum inhibiting concentration
Outline: as §1

[17] = test system: Streptococcus faecalis subsp. zymogenes ATCC 12958 LRP 61; assay: Bacteriostatic power in solid medium (MIC); type: cell-based; settings: Enterococcus faecalis, ATCC12958, read-out: Minimum inhibiting concentration
Outline: as §1

[18] = test system: Neisseria gonorrhoeae ATCC 19424 LRP 214; assay: Bacteriostatic power in solid medium (MIC); type: cell-based; settings: Neisseria gonorrhoeae, ATCC19424, read-out: Minimum inhibiting concentration
Outline: as §1

[19] = test system: Klelsiella pneumoniae LRP 54; assay: Bacteriostatic power in solid medium (MIC); type: cell-based; settings: read-out: Minimum inhibiting concentration
Outline: as §1

[20] = test system: Haemophilus influenzae ATCC 19418 LRP 213; assay: Bacteriostatic power in solid medium (MIC); type: cell-based; settings: Haemophilus influenzae, ATCC19418, read-out: Minimum inhibiting concentration
Outline: as §1

[21] = test system: Streptococcus faecalis LRP 7; assay: Bacteriostatic power in solid medium (MIC); type: cell-based; settings: Enterococcus faecalis, LRP7, read-out: Minimum inhibiting concentration
Outline: as §1

[22] = test system: Fusobacteriumnecrophroum ATCC 27852 LRP 210; assay: Bacteriostatic power in solid medium (MIC); type: cell-based; settings: read-out: Minimum inhibiting concentration
Outline: as §1

Bacillus subtilis LRP 25 = assay: Bacteriostatic power in solid medium (MIC); type: cell-based; settings: Bacillus subtilis, LRP25, read-out: Minimum inhibiting concentration
Outline: as §1

[23] = test system: Streptococcus pneumoniae ATCC 6303 LRP 35; assay: Minimum bactericidal concentration (MBC); type: cell-based; settings: Streptococcus pneumoniae, ATCC6303, read-out: Minimum bactericidal concentration (MBC)
Text: (§2) the bacterial power, expressed as the minimum bactericidal power (MBC) against some Gram positive aerobic stocks (table 5).

[24] = test system: Staphylococcus aureus ATCC 6538 P LRP 39; assay: Minimum bactericidal concentration (MBC); type: cell-based; settings: Staphylococcus aureus, ATCC6538, read-out: Minimum bactericidal concentration (MBC)
Text: as §2

[25] = test system: Corynebacterium diphteriae LRP 24; assay: Minimum bactericidal concentration (MBC); type: cell-based; settings: Corynebacterium, LRP24, read-out: Minimum bactericidal concentration (MBC)
Text: as §2

[26] = test system: Streptococcus pyogenes ATCC 8668 LRP 34; assay: Minimum bactericidal concentration (MBC); type: cell-based; settings: Streptococcus pyogenes, ATCC8668, read-out: Minimum bactericidal concentration (MBC)
Text: as §2

[27] = test system: Streptococcus faecalis subs. zymogenes LRP 61; assay: Minimum bactericidal concentration (MBC); type: cell-based; settings: Enterococcus faecalis, read-out: Minimum bactericidal concentration (MBC)
Text: as §2

[28] = Stability in acidic environment at 25° C. (half-life of initial microbiological activity); type: physicochemical; settings: aqueous solution
Procedure: Stability in acidic environnment at 25° C. of the novel
Note: t 1/2 represents the time for reducing to one half the initial powe
of the antibiotic determined by microbiological method through diffusion
on a plate using the test stock Microccocus luteus (Sarcina lutea) ATCC

[29] = test system: Streptococcus pneumoniae ATCC 6303 LRP 35; assay: Bacteriostatic power in liquid medium (MIC); type: cell-based; settings: Streptococcus pneumoniae, ATCC6303, read-out: Minimum inhibiting concentration
Outline: as §1

[30] = test system: Staphylococcus aureus ATCC 6538 P LRP 39; assay: Bacteriostatic power in liquid medium (MIC); type: cell-based; settings: Staphylococcus aureus, ATCC6538, read-out: Minimum inhibiting concentration
Outline: as §1

[31] = test system: Corynebacterium diphteriae LRP 24; assay: Bacteriostatic power in liquid medium (MIC); type: cell-based; settings: Corynebacterium, LRP24, read-out: Minimum inhibiting concentration
Outline: as §1

[32] = test system: Streptococcus pyogenes ATCC 8668 LRP 34; assay: Bacteriostatic power in liquid medium (MIC); type: cell-based; settings: Streptococcus pyogenes, ATCC8668, read-out: Minimum inhibiting concentration
Outline: as §1

[33] = test system: Streptococcus faecalis subs. zymogenes ATCC 12958 LRP 61; assay: Bacteriostatic power in liquid medium (MIC); type: cell-based; settings: Enterococcus faecalis, ATCC12958, read-out: Minimum inhibiting concentration
Outline: as §1

[34] = Serum concentrations in the rat after oral administration; type: in vivo; settings: rat, in vivo, po, 100 mg/kg
Procedure: administration of 100 mg/kg per os. The values, at the
several sampling times, correspond to mcg of product per ml of serum*.

[35] = test system: Clostridium perfrigens ATCC 3624 LRP 206; assay: microbe, parasite or virus in culture; type: cell-based; settings: ATCC3624, solid medium, anaerobic, read-out: Minimum inhibiting concentration
Text: (§3) the bacteriostatic power, expressed as the minimum inhibiting concentration (MIC) against both aerobic and anaerobic, Gram positive and Gram negative, bacterial stocks: the related results are reported in the tables 2 and 3.

Salmonella typhy LRP 8 = assay: microbe, parasite or virus in culture; type: cell-based; settings: LRP8, solid medium, read-out: Minimum inhibiting concentration
Text: as §3

With `CC[C@H]1OC(=O)[C@H](C)[C@@H](O[C@H]2C[C@@](C)(OC)[C@@H](O)[C@H](C)O2)[C@H](C)[C@@H](O[C@@H]2O[C@H](C)C[C@H](N(C)C)[C@H]2O)[C@](C)(O)C[C@@H](C)C(=O)[C@H](C)[C@@H](O)[C@]1(C)O` [Erythromycin A, reference compound] the MIC [1] was 25 µg/mL (≈ 34.1 µM), the MIC [2] was 0.012 µg/mL (≈ 0.0164 µM) and the MIC [3] was 0.049 µg/mL (≈ 0.0668 µM). For the same molecule, the MIC [4] was 0.049 µg/mL (≈ 0.0668 µM), the MIC [5] was 0.012 µg/mL (≈ 0.0164 µM) and the MIC [6] was 0.006 µg/mL (≈ 0.00818 µM). It also gave an MIC [7] of 0.012 µg/mL (≈ 0.0164 µM), an MIC [8] of 0.012 µg/mL (≈ 0.0164 µM) and an MIC [9] of 0.097 µg/mL (≈ 0.132 µM). For the same molecule, the MIC [10] was 0.195 µg/mL (≈ 0.266 µM), the MIC [11] was 25 µg/mL (≈ 34.1 µM) and the MIC (Shigella sonnei LRP 5) was 12.5 µg/mL (≈ 17 µM). The MIC (Escherichia coli LRP 50) was 6.25 µg/mL (≈ 8.52 µM), the MIC [12] was 25 µg/mL (≈ 34.1 µM) and the MIC [13] was 0.006 µg/mL (≈ 0.00818 µM). For the same molecule, the MIC [14] was 0.012 µg/mL (≈ 0.0164 µM), the MIC [15] was 25 µg/mL (≈ 34.1 µM) and the MIC [16] was 25 µg/mL (≈ 34.1 µM). For the same molecule, the MIC [17] was 0.097 µg/mL (≈ 0.132 µM), the MIC [18] was 0.049 µg/mL (≈ 0.0668 µM) and the MIC [19] was 12.5 µg/mL (≈ 17 µM). It also gave an MIC [20] of 3.12 µg/mL (≈ 4.25 µM), an MIC [21] of 0.097 µg/mL (≈ 0.132 µM) and an MIC [22] of 3.12 µg/mL (≈ 4.25 µM). For the same molecule, the MIC (Bacillus subtilis LRP 25) was 0.049 µg/mL (≈ 0.0668 µM), the MBC [23] was 0.097 µg/mL (≈ 0.132 µM) and the MBC [24] was 1.56 µg/mL (≈ 2.13 µM). For the same molecule, the MBC [25] was 0.049 µg/mL (≈ 0.0668 µM), the MBC [26] was 0.39 µg/mL (≈ 0.531 µM) and the MBC [27] was 6.25 µg/mL (≈ 8.52 µM). The half-life ([28]; pH 2) was 2 min, the half-life ([28]; pH 3) was 6 min and the MIC [29] was 0.024 µg/mL (≈ 0.0327 µM). For the same molecule, the MIC [30] was 0.097 µg/mL (≈ 0.132 µM), the MIC [31] was 0.012 µg/mL (≈ 0.0164 µM) and the MIC [32] was 0.024 µg/mL (≈ 0.0327 µM). The MIC [33] was 0.39 µg/mL (≈ 0.531 µM), the concentration at 2 h ([34]; 100 mg/kg per os, 2 hours) was 1140 ng/mL and the concentration at 0.5 h ([34]; Serum concentration, average) was 478 ng/mL. For the same molecule, the concentration at 1 h ([34]; Serum concentration, average) was 534 ng/mL, the concentration at 4 h ([34]; Serum concentration, average) was 262 ng/mL and the concentration at 6 h ([34]; Serum concentration, average) was 165 ng/mL. The MIC [35] was 1.56 µg/mL (≈ 2.13 µM) and the MIC (Salmonella typhy LRP 8) was 12.5 µg/mL (≈ 17 µM).
